Experimental data as given in the supplement of paper PMC10307832.

Key:
Experiment in all cases: relative viability (nuclei count vs DMSO), 5 days (fraction); higher = more cells survive
[1] = compound: CCn1c(-c2nonc2N)nc2c(C#CC(C)(C)O)ncc(OC[C@H]3CCCNC3)c21 + CC(C)C[C@H](NC(=O)[C@H](Cc1ccccc1)NC(=O)c1cnccn1)B(O)O [Bortezomib] (partner 0.002 µM)
Outline: (§1)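 Lung cancer cell lines in 1536-well plates were dosed by pin tool the day after seeding, either with one drug alone or with a fixed anchor-drug dose plus five library-drug doses (not always all listed) in √10 steps. After 5 days, cells were fixed and their nuclei stained in one step (final 0.05% Triton X-100, 1% formaldehyde, 1 ug/ml Hoechst), then counted on 4× images. Relative viability is the nuclei count in treated wells divided by that in vehicle wells. Values are medians of duplicate plates.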

[2] = compound: CCn1c(-c2nonc2N)nc2c(C#CC(C)(C)O)ncc(OC[C@H]3CCCNC3)c21 + NC(=O)Nc1cc(-c2cccc(F)c2)sc1C(=O)N[C@H]1CCCNC1 [AZD7762] (partner 0.2 µM)
Outline: as §1

BAM7 + Crizotinib = compound: CCOC1=CC=CC=C1N=NC2=C(NN(C2=O)C3=NC(=CS3)C4=CC=CC=C4)C [BAM7] + C[C@@H](Oc1cc(-c2cnn(C3CCNCC3)c2)cnc1N)c1c(Cl)ccc(F)c1Cl [Crizotinib] (partner 1 µM)
Outline: as §1

BAM7 + Bortezomib = compound: CCOC1=CC=CC=C1N=NC2=C(NN(C2=O)C3=NC(=CS3)C4=CC=CC=C4)C [BAM7] + CC(C)C[C@H](NC(=O)[C@H](Cc1ccccc1)NC(=O)c1cnccn1)B(O)O [Bortezomib] (partner 0.002 µM)
Outline: as §1

| Cell Line | relative viability ([1]; first compound 0.01 µM) | relative viability ([1]; first compound 0.03162 µM) | relative viability ([1]; first compound 0.1 µM) | relative viability ([1]; first compound 0.3162 µM) | relative viability ([1]; first compound 1 µM) | relative viability ([2]; first compound 0.01 µM) | relative viability ([2]; first compound 0.03162 µM) | relative viability ([2]; first compound 0.1 µM) | relative viability ([2]; first compound 0.3162 µM) | relative viability ([2]; first compound 1 µM) | relative viability (BAM7 + Crizotinib; first compound 0.5 µM) | relative viability (BAM7 + Crizotinib; first compound 5 µM) | relative viability (BAM7 + Crizotinib; first compound 15.81 µM) | relative viability (BAM7 + Crizotinib; first compound 50 µM) | relative viability (BAM7 + Bortezomib; first compound 0.5 µM) | relative viability (BAM7 + Bortezomib; first compound 5 µM) | relative viability (BAM7 + Bortezomib; first compound 15.81 µM) | relative viability (BAM7 + Bortezomib; first compound 50 µM) |
| --- | --- | --- | --- | --- | --- | --- | --- | --- | --- | --- | --- | --- | --- | --- | --- | --- | --- | --- |
| NCI-H1734 | 0.872 | 0.965 | 0.875 | 0.344 | 0.648 | 0.66 | 0.581 | 0.452 | 0.548 | 0.504 | 0.868 | 0.634 | 0.556 | 0.685 | 1.13 | 1.12 | 0.888 | 0.978 |
| HOP-62 | 0.623 | 0.615 | 0.803 | 0.376 | 0.922 | 0.761 | 0.677 | 0.732 | 0.577 | 0.516 | 0.931 | 1.02 | 0.83 | 0.854 | 0.854 | 0.98 | 1.05 | 0.847 |
| LOU-NH91 | 0.57 | 0.344 | 0.481 | 0.448 | 0.47 | 0.78 | 0.693 | 0.755 | 0.689 | 0.68 | 0.722 | 0.801 | 0.719 | 0.705 | 0.476 | 0.508 | 0.546 | 0.486 |
| ChaGo-K-1 | 0.972 | 0.795 | 1.01 | 0.99 | 0.954 | 0.87 | 0.885 | 0.868 | 0.836 | 0.758 | 1.16 | 1.05 | 1.12 | 1.15 | 0.861 | 1.09 | 1.14 | 0.969 |
| PC-14 | 0.966 | 0.84 | 0.956 | 0.813 | 0.852 | 0.31 | 0.285 | 0.356 | 0.31 | 0.342 | 1.07 | 0.99 | 0.805 | 0.859 | 0.918 | 1.03 | 0.846 | 0.806 |
| NCI-H1437 | 0.616 | 0.538 | 0.593 | 0.357 | 0.483 | 1.03 | 1.17 | 1.18 | 1.08 | 0.953 | 1 | 1.16 | 0.53 | 0.937 | 0.537 | 0.412 | 0.395 | 0.551 |
| NCI-H460 | 1.01 | 1.26 | 1.13 | 1.04 | 1.12 | 0.633 | 0.649 | 0.575 | 0.636 | 0.618 | 1.16 | 1.13 | 0.743 | 0.96 | 1.38 | 1.1 | 1.04 | 1.01 |
| NCI-H1666 | 0.688 | 0.678 | 0.869 | 0.762 | 0.841 | 0.806 | 0.827 | 0.839 | 0.804 | 0.876 | 1.07 | 1.02 | 1.03 | 0.967 | 0.852 | 0.682 | 0.729 | 0.998 |
| NCI-H1651 | 0.905 | 0.901 | 0.864 | 0.903 | 0.989 | 0.401 | 0.472 | 0.454 | 0.447 | 0.337 | 0.826 | 0.889 | 0.871 | 0.886 | 0.992 | 0.917 | 0.988 | 0.926 |
